How the values were obtained:
GSH uptake transporters = experiment: Inhibition of [3H]-GSH uptake; format: cell-based, human; conditions: 100 nM [3H]-GSH; 1 μM, 100 nM and 10 nM compound
Method: Inhibition of Glutathione Uptake by Ψ-GS. The uptake experiment was performed under conditions described previously. Briefly, the cells were seeded in 24-well plates. After an overnight incubation, the cells were treated with 100 nM concentration of [^3H]-GSH in uptake buffer (128 mM NaCl, 4.73 mM KCl, 1.25 mM CaCl2, 1.25 mM MgSO4, and 5 mM HEPES, pH =7.4) in the presence or absence of Ψ-GSH at concentrations of 10, 100 and 1000 nM at 37° C. under 5% CO2 for 30 min. At the end of incubation, the cellular uptake was terminated by washing three times with ice-cold PBS. Any remaining buffer was aspirated, and the cells were lysed with 1 ml of warm 0.1% SDS/0.1 N NaOH solution for a minimum of 45 min. Intracellular levels of radioactive GSH were determined using liquid scintillation counting. All resulting levels of GSH uptake were normalized to the total protein in each well using a BCA protein assay. All uptake experiments were performed in triplicate and statistically significant differences in uptake were evaluated using Graphpad Prism 5.1 (Graphpad, La Jolla, Calif.) using a one-way ANOVA followed by a Dunnett's post hoc test with a false discovery rate of 0.05.

[1] = Non-protein thiols in plasma and brain (DTNB); format: in vivo, C57BL/6 mice
Method: Detection of Non-Protein Thiols in Plasma and Brain. Wild type C57BL/6 mice at the age of six to eight weeks (4 per group) were treated with Ψ-GSH i.p and orally. Mice were euthanized by overdose of ketamine and xylazine at the desired time-points from the administration of the drug (0, 0.5, 1, 2 and 4 hours after drug administration). Brain and plasma samples were collected. Brains were perfused with ice-cold 0.9% NaCl, and cut sagittally into left and right hemispheres. The right hemisphere was fixed in Zamboni's fixative as described under Immunohistochemistry. The left hemispehere was immediately frozen in liquid nitrogen and utilized in further biochemical analysis. Brain tissue was homogenized in ice-cold buffer (50 mM phosphate, pH 7.0, containing 1 mM EDTA containing protease inhibitors) containing 5% sulfosalicylic acid. After homogenization, samples were centrifuged at 8000×g for 10 min at 4° C. The clear supernatant was transferred to a new tube and used for analysis of free thiol concentration.
Blood was collected in heparin-coated tubes (Fisher, Pittsburgh, Pa.) and immediately centrifuged at 5000×g for 10 min at 4° C. […]
Assay Conditions: 150 μl of Tris.HCl, pH 8.9 (Trizma base, 0.2 M; EDTA 0.02 M)+20 μl of DTNB (1 mg/mL in methanol)+50 μl of supernatant from TCA precipitation. The changes in absorbance were measured at 412 nm after […] incubation in dark at room temperature.

APP/PS1 mice [2] = experiment: Immunohistochemistry of Aβ plaques in brain; format: in vivo
Method: (§1) Efficacy Study Design. To determine the effect of intraperitoneal and oral Ψ-GSH treatment, the study was divided in four groups (10 mice/group). 1. APP/PS1 mice-vehicle control, 2. APP/PS1 mice-Ψ-GSH i.p. 500 mg/kg, 3. APP/PS1 mice-Ψ-GSH oral 500 mg/kg, 4. Non-transgenic wild type mice-vehicle control. All the animals in the above-said groups were treated with saline or Ψ-GSH three times a week for 12 weeks, starting at the age of three to four months. Eleven weeks after the start of the treatment, the animals were tested in the Morris water maze, and twelve weeks after the start of the treatment, the animals were sacrificed for histopathological analysis.
Immunohistochemistry. Mice were anesthetized, and their brains were removed, cut sagittaly. Following post-fixation of right hemisphere in Zamboni's fixative (4% paraformaldehyde and 15% picric acid in 0.25 M sodium phosphate, pH 7.5) for 48 h before being cryopreserved in a 30% (wt/vol) sucrose in phosphate-buffered saline solution. Brains were then were embedded in O.C.T. Tissue Tek Compound (Miles Scientific) and were cryosectioned at 10 μm thickness for immunohistochemistry, mounted on Superfrost™ microscope slides (Erie Scientific, Portsmouth N.H.) and stored at […] until their utilization.
The brain sections were stained with a primary antibody against 0-amyloid peptide (Cell signaling, Cat. #2454) at a dilution of 1:200 in PBS. […]

APP/PS1 mice [3] = experiment: Brain protein carbonyl determination; format: in vivo
Method: as §1
Protein Carbonyl Determination. Brains were homogenized in cold buffer (50 mM phosphate, pH 7.0, containing 1 mM EDTA containing protease inhibitors) and centrifuged at 10,000×g for 15 min at 4° C. The supernantent was mixed with 0.5 ml of 10 mM 2,4-dinitrophenylhydrazine (DNPH)/2 M HCL (or 2 M HCl alone for blanks). Samples were placed in a sample holder and incubated in the dark at room temperature for one hour vortexing intermittently. […] The concentration of DNPH was determined at its maximum wavelength (360 nm) and the molar absorption coefficient of 22,000 M^−1 cm^−1 was used to quantify the levels of protein carbonyls. Total protein concentration was determined by BCA protein assay kit (Pierce, Rockford, Ill.). […]

With `N[C@@H](CNC(=O)N[C@@H](CS)C(=O)NCC(=O)O)C(=O)O` [Ψ-GSH, γ-Gla-Cys-Gly-OH] the “[3H]-GSH uptake by SH-SY-5Y cells” value (GSH uptake transporters) was “inhibited in a dose-dependent manner”, the plasma thiol level ([1]; oral 500 mg/Kg, over 2 hours) was “reducing to basal levels” and the plasma thiol level ([1]; single i.p. 500 mg/Kg, at 4 hours) was “dropped to basal levels”. For the same molecule, the “number and size of Aβ plaques” value (APP/PS1 mice [2]; i.p.) was “drastically reduced”, the “Aβ plaques relative to controls” value (APP/PS1 mice [2]; oral) was “modest decrease” and the “Protein carbonyls in brain (WT saline = 100%)” value (APP/PS1 mice [3]; i.p.) was 97.8±6.30%. The “levels of protein carbonylation” value (APP/PS1 mice [3]; oral) was “unaffected”.
